Where a name gives a salt, the structure may show the parent alone.
Tests used:
[1] = system: CTX-induced immunocompromised mouse model; assay type: in vivo
Description: (§1) SPF BALB/c male mice that each were 6 to 8 weeks old and weighed 18 g to 22 g were provided by Liaoning Changsheng Biotechnology Co., Ltd., with animal license No.: SCXK (Liao) 2020-0001. The BALB/c mice were randomly divided into 7 groups, with 8 mice in each group. Mice in the blank group and model group were each orally gavaged with 0.4 mL of NS, mice in the positive control group were each orally gavaged with levamisole hydrochloride (LEV) (10 mg·kg^−1), and mice in the B. lactis strain XLTG11 dose groups were orally gavaged with 0.4 mL of B. lactis strain XLTG11 suspensions at doses of 1×10^9 cfu, 1×10^8 cfu, 1×10^7 cfu, and 1×10^6 cfu per mouse, respectively. The mice were orally gavaged continuously for 28 d, during which the mice could eat and drink freely. On day 23 and day 24 after the oral gavage, mice in the model group, positive control group, and B. lactis strain XLTG11 dose groups were intraperitoneally injected with CTX (40 mg·kg^−1), and mice in the blank group were intraperitoneally injected with an equal volume of NS.

[2] = system: CTX-induced immunocompromised mouse model; assay: Pathological changes of small intestinal mucosal tissue (HE staining) in CTX mice; assay type: in vivo, BALB/c male mice; conditions: LEV 10 mg·kg^−1, CTX mice, FIG. 9
Description: as §1

[3] = system: CTX-induced immunocompromised mouse model; assay: Villus height of small intestinal mucosa in CTX mice; assay type: in vivo, BALB/c male mice; conditions: LEV 10 mg·kg^−1, vs model group, P<0.05, FIG. 10
Description: as §1

[4] = system: CTX-induced immunocompromised mouse model; assay type: in vivo; conditions: serum, CTX mice, LEV 10 mg·kg^−1
Description: as §1
min after the last oral gavage to mice in each group, eyeballs were removed, the whole blood was collected and centrifuged at 3000 r·min^−1 for 10 min, and the resulting serum was collected, dispensed, and frozen in a −80° C. refrigerator for test. Serum IgA, IgG, IL-2, IL-6, IFN-γ, and TNF-α levels were determined with an ELISA kit, and specific operation steps were conducted according to the instructions.

Work on `c1ccc([C@H]2CN3CCSC3=N2)cc1` [Positive control, levamisole hydrochloride] yielded a Toe thickness difference ([1]; LEV 10 mg·kg^−1, CTX mice, before vs 24 h after SRBC injection) of 0.054 cm, a Goblet cell number ([1]; LEV 10 mg·kg^−1, CTX mice, number of goblet cells/epithelial length (mm)) of 25.22 and a Spleen index ([1]; LEV 10 mg·kg^−1 oral gavage 28 d, CTX mice, spleen mass (mg)/body mass (g)) of 2.97. The Thymus index ([1]; LEV 10 mg·kg^−1 oral gavage 28 d, CTX mice, thymus mass (mg)/body mass (g)) was 1.42, the “damage of the small intestinal mucosal tissue” value [2] was “improved” and the “small intestinal villus height” value [3] was “increased”. For the same compound, the IFN-γ [4] was 466.78 ± 62.60 ng/L, the IL-2 [4] was 666.32 ± 134.02 ng/L and the IL-6 [4] was 77.12 ± 17.49 pg/mL. The IgA [4] was 55.95 ± 3.66 ng/mL, the IgG [4] was 467.59 ± 54.35 ng/mL and the TNF-α [4] was 496.86 ± 49.31 ng/L.
